No end group written: not given here.
Tested on: E. coli Rosetta DE3 pLysS
Assay: MIC, liquid broth microdilution assay
Type: cell-based, Escherichia coli
Details: 25% MHBII, 7.5 × 10^6 CFU/mL, 20 ± 2 h at 37 °C, turbidity at 600 nm, at least twice in triplicates
Experimental: Minimal inhibitory concentrations (MICs) were determined at least twice in triplicates, using a liquid broth microdilution assay in sterile 96-well plates and a total volume of 100 μL per well. Aqueous peptide solutions were serially two-fold diluted in 50 µL of 25% MHBII or LB medium (Luria/Miller). Overnight cultures were diluted in 25% MHBII or LB medium (Luria/Miller) to 1.5 × 10^7 cells per mL and an aliquot of 50 μL was added to each well. The final cell count in each well was 7.5 × 10^6 CFU/mL. The plates were incubated for 20 ± 2 h at 37 °C. The turbidity of each well was measured at 600 nm.

Row | Sequence | MIC [µg/mL]
1 | GNNRPVYIPRPRPPHPRL [Api801] | 2
2 | GNNRPIYIPRPRPPHPRPIRV [Api805] | 4
